Target: 5-HT2A receptors (Rattus norvegicus, UniProt P14842)
Assay: in-vitro affinity to 5-HT2A receptors, displacement of [3H]ketanserine (Example A1)
Type: binding
Details: target not given; description names affinity to 5-HT2A receptors; read-out: IC50
Description: The 5-HT2A receptors are exposed both to [^3H]ketanserine (a substance which is known for its affinity to the receptor) and also to the test compound. The decrease in the affinity of [^3H]ketanserine to the receptor is an indication of the affinity of the test substance to the 5-HT2A receptor.

5-HT2A receptors, sequence (P14842 whole entry): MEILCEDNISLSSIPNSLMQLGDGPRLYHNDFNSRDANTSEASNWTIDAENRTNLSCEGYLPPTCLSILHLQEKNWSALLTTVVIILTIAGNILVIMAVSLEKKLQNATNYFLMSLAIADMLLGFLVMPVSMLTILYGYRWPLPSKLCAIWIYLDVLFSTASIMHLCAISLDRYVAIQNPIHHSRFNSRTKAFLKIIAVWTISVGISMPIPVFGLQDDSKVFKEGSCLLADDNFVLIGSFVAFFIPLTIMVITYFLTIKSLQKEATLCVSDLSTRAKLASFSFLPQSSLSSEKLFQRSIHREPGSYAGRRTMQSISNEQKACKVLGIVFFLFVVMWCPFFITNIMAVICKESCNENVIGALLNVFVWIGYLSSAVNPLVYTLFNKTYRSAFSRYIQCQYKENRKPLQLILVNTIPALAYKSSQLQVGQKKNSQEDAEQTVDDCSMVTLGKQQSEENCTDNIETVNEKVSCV

Row | Structure (SMILES) | IC50 [nM]
1 | Fc1ccccc1-c1ccc(-n2ncc(CN3CCOCC3)c2-c2ccccc2F)cn1 [(146), 4-{5-(2-Fluorophenyl)-1-[6-(2-fluorophenyl)pyridin-3-yl]-1H-pyrazol-4-ylmethyl}morpholine] | 600
2 | CN1CCN(Cc2cnn(-c3ccc(-c4cc(F)ccc4F)nc3)c2-c2ccccc2F)CC1 [(147), 1-[1-[6-(2,5-Difluorophenyl)pyridin-3-yl]-5-(2-fluorophenyl)-1H-pyrazol-4-ylmethyl]-4-methylpiperazine] | 430
3 | CCOC(=O)CNCc1cnn(-c2ccc(-c3ccccc3F)nc2)c1-c1ccccc1F [(148), Ethyl ({5-(2-fluorophenyl)-1-[6-(2-fluorophenyl)pyridin-3-yl]-1H-pyrazol-4-ylmethyl}amino)acetate] | 1600
4 | CN1CCN(CC(O)CC(O)c2cnn(-c3ccc(-c4ccccc4)cc3)c2-c2ccccc2F)CC1 (stereo not shown) [(149), 1-[1-Biphenyl-4-yl-5-(2-fluorophenyl)-1H-pyrazol-4-yl]-4-(4-methylpiperazin-1-yl)butane-1,3-diol] | 620
5 | C=CCC(O)c1cnn(-c2ccc(-c3ccccc3)cc2)c1-c1ccccc1F (stereo not shown) [(150), 1-[1-Biphenyl-4-yl-5-(2-fluorophenyl)-1H-pyrazol-4-yl]-but-3-en-1-ol] | 1300
6 | O=C1CCCN1CCCNCc1cnn(-c2ccc(-c3ccccc3)cc2)c1-c1ccccc1F [(151), 1-(3-{[1-Biphenyl-4-yl-5-(2-fluorophenyl)-1H-pyrazol-4-ylmethyl]amino}propyl)pyrrolidin-2-one] | 64
7 | Fc1ccccc1-c1c(CNCCCn2ccnc2)cnn1-c1ccc(-c2ccccc2)cc1 [(152), [1-Biphenyl-4-yl-5-(2-fluorophenyl)-1H-pyrazol-4-ylmethyl]-(3-imidazol-1-ylpropyl)amine] | 130
8 | CCOC(=O)CNC(=O)CNCc1cnn(-c2ccc(-c3ccccc3)cc2)c1-c1ccccc1F [(153), Ethyl (2-{[1-Biphenyl-4-yl-5-(2-fluorophenyl)-1H-pyrazol-4-ylmethyl]amino}ethanoylamino)acetate] | 1100
9 | Fc1ccccc1-c1c(CNCCc2c[nH]cn2)cnn1-c1ccc(-c2ccccc2)cc1 [(154), [1-Biphenyl-4-yl-5-(2-fluorophenyl)-1H-pyrazol-4-ylmethyl]-[2-(1H-imidazol-4-yl)ethyl]amine] | 170
10 | NC(=O)C1CCCN1Cc1cnn(-c2ccc(-c3ccccc3)cc2)c1-c1ccccc1F (stereo not shown) [(155), 1-[1-Biphenyl-4-yl-5-(2-fluorophenyl)-1H-pyrazol-4-ylmethyl]-pyrrolidine-2-carboxamide] | 1700
11 | COCCN(C)Cc1cnn(-c2ccc(-c3ccc(F)cc3)nc2)c1-c1ccccc1F [(156), {5-(2-Fluorophenyl)-1-[6-(4-fluorophenyl)pyridin-3-yl]-1H-pyrazol-4-ylmethyl}-(2-methoxyethyl)methylamine] | 300
12 | COCCN(C)Cc1cnn(-c2ccc(-c3ccccc3F)nc2)c1-c1ccccc1F [(157), {5-(2-Fluorophenyl)-1-[6-(2-fluorophenyl)pyridin-3-yl]-1H-pyrazol-4-ylmethyl}-(2-methoxyethyl)methylamine] | 2000
13 | Fc1ccccc1-c1c(CNc2cnccn2)cnn1-c1ccc(-c2ccccc2)cc1 [(158), [1-Biphenyl-4-yl-5-(2-fluorophenyl)-1H-pyrazol-4-ylmethyl]-pyrazin-2-ylamine] | 2300
14 | COCCN(C)Cc1cnn(-c2ccc(-c3cc(F)ccc3F)nc2)c1-c1ccccc1F [(159), [1-[6-(2,5-Difluorophenyl)pyridin-3-yl]-5-(2-fluorophenyl)-1H-pyrazol-4-ylmethyl]-(2-methoxyethyl)-methylamine] | 1400
15 | Fc1ccccc1-c1c(CN2CCC2)cnn1-c1ccc(-c2ccccc2)cc1 [(160), 4-Azetidin-1-ylmethyl-1-biphenyl-4-yl-5-(2-fluorophenyl)-1H-pyrazole] | 47
16 | Fc1ccccc1-c1c(CNC2CCN(Cc3ccccc3)C2)cnn1-c1ccc(-c2ccccc2)cc1 (stereo not shown) [(161), (1-Benzylpyrrolidin-3-yl)-[1-biphenyl-4-yl-5-(2-fluorophenyl)-1H-pyrazol-4-ylmethyl]amine] | 310
17 | COC(=O)c1cc(NCc2cnn(-c3ccc(-c4ccccc4)cc3)c2-c2ccccc2F)cn1C [(162), Methyl 4-{[1-biphenyl-4-yl-5-(2-fluorophenyl)-1H-pyrazol-4-ylmethyl]amino}-1-methyl-1H-pyrrole-2-carboxylate] | 120
18 | O=C1NCCCCC1NCc1cnn(-c2ccc(-c3ccccc3)cc2)c1-c1ccccc1F (stereo not shown) [(163), 3-{[1-Biphenyl-4-yl-5-(2-fluorophenyl)-1H-pyrazol-4-ylmethyl]-amino}azepan-2-one] | 510
19 | O=C(NCCO)C1CCN(Cc2cnn(-c3ccc(-c4ccccc4)cc3)c2-c2ccccc2F)CC1 [(164), N-(2-Hydroxyethyl)-1-[1-biphenyl-4-yl-5-(2-fluorophenyl)-1H-pyrazol-4-ylmethyl]piperidine-4-carboxamide] | 270
20 | NCc1cnn(-c2ccc(-c3ccccc3)cc2)c1-c1ccccc1 [(165), C-(1-Biphenyl-4-yl-5-phenyl-1H-pyrazol-4-yl)methylamine] | 21

Row | Structure (SMILES) | IC50 [nM]
21 | Fc1ccccc1-c1c(C=NNC2=NCCN2)cnn1-c1ccc(-c2ccccc2)cc1 [(166), N-[1-Biphenyl-4-yl-5-(2-fluorophenyl)-1H-pyrazol-4-yl-methylene]-N′-(4,5-dihydro-1H-imidazol-2-yl)hydrazine] | 1200
22 | CN(C)C1CCN(Cc2cnn(-c3ccc(-c4ccccc4)cc3)c2-c2ccccc2F)C1 (stereo not shown) [(167), {1-[1-Biphenyl-4-yl-5-(2-fluorophenyl)-1H-pyrazol-4-ylmethyl]-pyrrolidin-3-yl}dimethylamine] | 230
23 | CN1CCC(N(C)Cc2cnn(-c3ccc(-c4ccccc4)cc3)c2-c2ccccc2F)C1 (stereo not shown) [(168), [1-Biphenyl-4-yl-5-(2-fluorophenyl)-1H-pyrazol-4-ylmethyl]-methyl-(1-methylpyrrolidin-3-yl)amine] | 16
24 | Cn1ccnc1CNCc1cnn(-c2ccc(-c3ccccc3)cc2)c1-c1ccccc1 [(169), (1-Biphenyl-4-yl-5-phenyl-1H-pyrazol-4-ylmethyl)-(1-methyl-1H-imidazol-2-ylmethyl)amine] | 39
25 | c1ccc(-c2ccc(-n3ncc(CNCc4ccncc4)c3-c3ccccc3)cc2)cc1 [(170), (1-Biphenyl-4-yl-5-phenyl-1H-pyrazol-4-ylmethyl)pyridin-4-ylmethylamine] | 31
26 | Cn1cccc1CNCc1cnn(-c2ccc(-c3ccccc3)cc2)c1-c1ccccc1 [(171), (1-Biphenyl-4-yl-5-phenyl-1H-pyrazol-4-ylmethyl)-(1-methyl-1H-pyrrol-2-ylmethyl)amine] | 26
27 | c1ccc(-c2ccc(-n3ncc(CNCc4ccccn4)c3-c3ccccc3)cc2)cc1 [(172), (1-Biphenyl-4-yl-5-phenyl-1H-pyrazol-4-ylmethyl)pyridin-2-ylmethylamine] | 23
28 | OCCc1cnn(-c2ccc(-c3ccccc3)cc2)c1-c1ccccc1F [(173), 2-[1-Biphenyl-4-yl-5-(2-fluorophenyl)-1H-pyrazol-4-yl]-ethanol] | 470
29 | Fc1ccc(-c2ccc(-n3ncc(CNc4ccon4)c3-c3ccccc3F)cn2)cc1 [(174), {5-(2-Fluorophenyl)-1-[6-(4-fluorophenyl)pyridin-3-yl]-1H-pyrazol-4-ylmethyl}isoxazol-3-ylamine] | 320
30 | CC(C)(C)OC(=O)N1CCC(NCc2cnn(-c3ccc(-c4ccccc4)cc3)c2-c2ccccc2F)C1 (stereo not shown) [(176), tert-Butyl 3-{[1-biphenyl-4-yl-5-(2-fluorophenyl)-1H-pyrazol-4-ylmethyl]amino}pyrrolidine-1-carboxylate] | 460
31 | Nc1ccncc1NCc1cnn(-c2ccc(-c3ccccc3)cc2)c1-c1ccccc1F [(177), N^3-[1-Biphenyl-4-yl-5-(2-fluorophenyl)-1H-pyrazol-4-ylmethyl]-pyridine-3,4-diamine] | 180
32 | Cc1cnc(NCc2cnn(-c3ccc(-c4ccccc4)cc3)c2-c2ccccc2F)s1 [(178), [1-Biphenyl-4-yl-5-(2-fluorophenyl)-1H-pyrazol-4-ylmethyl]-(5-methylthiazol-2-yl)amine] | 370
33 | CC(C)(C)OC(=O)CNCc1cnn(-c2ccc(-c3ccccc3)cc2)c1-c1cccnc1 [(179), tert-Butyl [(1-biphenyl-4-yl-5-pyridin-3-yl-1H-pyrazol-4-ylmethyl)amino]acetate] | 1000
34 | CN(CC(=O)OC(C)(C)C)Cc1cnn(-c2ccc(-c3ccccc3)cc2)c1-c1cccnc1 [(180), tert-Butyl [(1-biphenyl-4-yl-5-pyridin-3-yl-1H-pyrazol-4-ylmethyl)methylamino]acetate] | 920
35 | Cc1cc(CNCc2cnn(-c3ccc(-c4ccccc4)cc3)c2-c2ccccc2)no1 [(181), (1-Biphenyl-4-yl-5-phenyl-1H-pyrazol-4-ylmethyl)-(5-methylisoxazol-3-ylmethyl)amine] | 240
36 | CCOC(=O)N1CCN(Cc2cnn(-c3ccc(-c4ccccc4)cc3)c2-c2ccccc2F)CC1 [(182), Ethyl 4-[1-biphenyl-4-yl-5-(2-fluorophenyl)-1H-pyrazol-4-ylmethyl]piperazine-1-carboxylate] | 58
37 | COC(=O)CCNCc1cnn(-c2ccc(-c3ccccc3)cc2)c1-c1cccnc1 [(183), Methyl 3-[(1-biphenyl-4-yl-5-pyridin-3-yl-1H-pyrazol-4-ylmethyl)amino]propionate] | 830
38 | Fc1ccccc1-c1c(CN2CCN(Cc3ccncc3)CC2)cnn1-c1ccc(-c2ccccc2)cc1 [(184), 1-[1-Biphenyl-4-yl-5-(2-fluorophenyl)-1H-pyrazol-4-ylmethyl]-4-pyridin-4-ylmethylpiperazine] | 75
39 | Fc1ccccc1-c1c(CCN2CCOCC2)cnn1-c1ccc(-c2ccccc2)cc1 [(185), 4-{2-[1-Biphenyl-4-yl-5-(2-fluorophenyl)-1H-pyrazol-4-yl]ethyl}morpholine] | 40
40 | Cc1nn(C)c(C)c1NCc1cnn(-c2ccc(-c3ccccc3)cc2)c1-c1ccccc1F [(187), [1-Biphenyl-4-yl-5-(2-fluorophenyl)-1H-pyrazol-4-ylmethyl]-(1,3,5-trimethyl-1H-pyrazol-4-yl)amine] | 590

Reference: patent publication US20060264419A1 (priority 2003, published 2006)
